The values below come from paper PMC11154727, “Systematic Studies on the Anti-SARS-CoV-2 Mechanisms of Tea Polyphenol-Related Natural Products” (ACS Omega, 2024).

Assay [1] has as its target T1, RBD/ACE2 interaction (UniProt P0DTC2+Q9BYF1, L452R/T478K). Conditions: read-out: IC50 RBD/ACE2.
Assay [2] has as its system UK B.1.1.7 N501Y Alpha SARS-CoV-2. The format is cell-based. The note with it: read-out: EC50 α strain.
In assay [3] the test system is Brazil P.1 Gamma mutant SARS-CoV-2. Format: cell-based. Conditions: read-out: EC50 γ strain.
Assay [4] deals with T1, RBD/ACE2 interaction. Kind of assay: cell-based.

Read-outs that look alike come from different tables or passages of the source.

In general, EC50 refers to the concentration that produces a half-maximal response.

Regarding proanthocyanidin, the IC50 on RBD/ACE2 interaction [1] came out at 12.4 ± 1.1 µM.
As to `O=C(O[C@@H]1Cc2c(O)cc(O)cc2O[C@@H]1c1cc(O)c(=O)c2c(O)c(O)cc([C@H]3Oc4cc(O)cc(O)c4C[C@H]3OC(=O)c3cc(O)c(O)c(O)c3)c2c1)c1cc(O)c(O)c(O)c1` [TF3, theaflavin-3,3′-digallate], the results for the half-maximal effective concentration (EC50) in assay [2] and in assay [3] were 0.5 µM and 0.4 ± 0.2 µM, respectively.
`O=c1c(O)cc([C@H]2Oc3cc(O)cc(O)c3C[C@H]2O)cc2c([C@H]3Oc4cc(O)cc(O)c4C[C@H]3O)cc(O)c(O)c12` [theaflavin] registered an IC50 against RBD/ACE2 interaction [4] of 12.3 ± 1.1 µM.
